In brackets after ≈: the same amount, converted by molar mass.
Legend:
Erwinia carotovora = test: Gas-phase bioassay in hermetically sealed vials, growth inhibition of the bacterium Erwinia carotovora; type: cell-based; conditions: compound in the gas phase; for IC50: Pectobacterium carotovorum, read-out: IC50 (50% inhibiting concentration)
Protocol: (§1) The antifungal and antibacterial activity of the VOC obtained in Example 1 was tested by bioassay in hermetically sealed vials in which the microorganism was cultured while being exposed to the compound under test in the gas phase at different concentrations. […] The IC50 (50% inhibiting concentration), the MIC (minimum inhibiting concentration) and the MLC (minimum lethal concentration) were calculated.

Botrytis cinerea = test: Gas-phase bioassay in hermetically sealed vials, growth inhibition of the fungus Botrytis cinerea; type: cell-based; conditions: compound in the gas phase; for IC50: read-out: IC50 (50% inhibiting concentration)
Protocol: as §1

IC50 (Erwinia carotovora) | MIC (minimum inhibiting concentration) (Erwinia carotovora) | MIC (minimum inhibiting concentration) (Botrytis cinerea) | IC50 (Botrytis cinerea) | Compound | MLC (minimum lethal concentration) (Erwinia carotovora) | MLC (minimum lethal concentration) (Botrytis cinerea)
> 150 µg/mL | >150 mg/Lair | 40 mg/Lair | 5 µg/mL (≈ 32.4 µM) | CC1(C)[C@@H]2CC[C@@]1(C)[C@H](O)C2 (racemic) [isoborneol] | >150 mg/Lair | 40 mg/Lair
150 µg/mL (≈ 1470 µM) | >150 mg/Lair | 20 mg/Lair | 15 µg/mL (≈ 147 µM) | CCCCCCO [hexanol] | >150 mg/Lair | 40 mg/Lair
15 µg/mL (≈ 115 µM) | 50 mg/Lair | 5 mg/Lair | 4 µg/mL (≈ 30.7 µM) | CCCCC(CC)CO (stereo not drawn) [2-ethyl-1-hexanol] | 75 mg/Lair | 10 mg/Lair

Source: patent publication US20130345051A1, “FUNGICIDAL AND BACTERICIDAL COMPOSITION THAT COMPRISES VOLATILE ORGANIC COMPOUNDS OF NATURAL ORIGIN” (BIOFUNGITEK, SOCIEDAD LIMITADA, priority 2011, published 2013)
